Laboratory results as given in patent US5241047A, “Synthetic peptides and mixtures thereof for detecting HIV antibodies” (BioChem Pharma Inc., priority 1990, dated 1993).
Positions of bridges follow the written chain, without caps; N, C: chain ends. Residues, ends and D or L forms follow the SMILES beside them.

Experiments:
[1] = tested on: HIV-1 antibodies; assay: ELISA with peptide-coated wells, HIV-1 antibody positive samples (diluted plasma pool, seroconversion samples); format: binding, human
Protocol: (§1) A preferred convenient and classical technique for the determination of antibodies against HIV-1 or HIV-2 using a peptide or a peptide mixture of the present invention is an enzyme-linked immunosorbent assay (ELISA). In this assay, for example, a peptide, peptide mixture or combination of the present invention is adsorbed onto, or covalently coupled to, the wells of a microtiter plate. The wells are then treated with the sera or analyte to be tested. After washing, antihuman IgG or antihuman IgM labeled with peroxidase is added to the wells. The determination of the peroxidase is performed with a corresponding substrate, e.g., with o-phenylene diamine. Without departing from the usefulness of the illustrative assay, the peroxidase can be exchanged by another label, e.g., by a radioactive, fluorescence chemiluminescence or infrared emitting label.
(§2) O.D. Values were obtained at 450 nm and the blank values measured with the sample dilution buffer were not subtracted.
(§3) Samples NEIA-2*2, BBI-1-162 to 168, 87B140, 87L139, 87V103 are all negative for HIV antibodies. Sample LSPQ-S9-1 is an early seroconverter (HIV-1). The series labeled CAP-113 to CAP-120 corresponds to a pool of seven HIV-1 positive plasma samples serially diluted with an HIV-negative plasma. CAP-113 is the pool diluted 50-fold with the HIV-negative plasma; CAP-114 is diluted 100-fold; CAP-115 is diluted 200-fold; etc. Similarly, the series labeled CAP-222 to CAP-230 corresponds to a pool of seven HIV-2 confirmed seropositive plasma samples. CAP-222 is diluted by 50 with an HIV-negative plasma; CAP-223 by 100; etc. Before the assay is done, each sample, including the CAP-series, is further diluted by 50 with the sample dilution buffer. In these tests, the cut-off for seropositivity is defined as the sum of the O.D. value for sample NEIA-2*2 plus 0.100.
Each well of the microtiter plate is saturated with 100 μl of a solution containing a peptide or mixture of peptides (5 μg/ml) and left overnight. The wells are emptied and washed twice with a washing buffer (Tris, 0.043M; NaCl, 0.5M; thimerosal, 0.01% w/v; Tween 20, 0.05% v/v; pH 7.4). The wells are then saturated with 0.35 ml of washing buffer for 1 hr. at 37° C. and washed once with the same buffer. Serum samples to be analyzed are diluted with specimen buffer (washing buffer plus casein, 0.05% w/v). The wells are rinsed with washing buffer prior to the addition of the diluted serum sample (0.1 ml). These are left to incubate for 1 hr. at room temperature. The wells are then emptied, washed twice rapidly and then once for two minutes with washing buffer. […] The wells are then emptied and washed twice rapidly with washing buffer and then five times in which the buffer was in contact with the well 2 minutes per washing. The substrate solution (3,3',5,5'-tetramethylbenzidine, 8 mg per ml of DMSO) is diluted with 100 volumes 0.1M citrate-acetate buffer, pH 5.6 containing 0.1% v/v of 30% H2 O2 and added to each well (0.1 ml per well). After 10 minutes the contents of each well is treated with 0.1 ml 2N H2 SO4 and the optical density read at 450 nm. All determinations are done in duplicate. […]

[2] = tested on: HIV-2 antibodies; assay: ELISA with peptide-coated wells, HIV-2 seropositive plasma pool serially diluted; format: binding, human; conditions: Test 314
Protocol: as §1, §2, §3
(§4) Each well of the microtiter plate is saturated with 100 μl of a solution containing a peptide or mixture of peptides (5 μg/ml) and left overnight. The wells are emptied and washed twice with a washing buffer (Tris, 0.043M; NaCl, 0.5M; thimerosal, 0.01% w/v; Tween 20, 0.05% v/v; pH 7.4). The wells are then saturated with 0.35 ml of washing buffer for 1 hr. at 37° C. and washed once with the same buffer. Serum samples to be analyzed are diluted with specimen buffer (washing buffer plus casein, 0.05% w/v). The wells are rinsed with washing buffer prior to the addition of the diluted serum sample (0.1 ml). These are left to incubate for 1 hr. at room temperature. The wells are then emptied, washed twice rapidly and then once for two minutes with washing buffer. […] The wells are then emptied and washed twice rapidly with washing buffer and then five times in which the buffer was in contact with the well 2 minutes per washing. The substrate solution (3,3',5,5'-tetramethylbenzidine, 8 mg per ml of DMSO) is diluted with 100 volumes 0.1M citrate-acetate buffer, pH 5.6 containing 0.1% v/v of 30% H2 O2 and added to each well (0.1 ml per well). After 10 minutes the contents of each well is treated with 0.1 ml 2N H2 SO4 and the optical density read at 450 nm. All determinations are done in duplicate.
(§5) Peptide cocktails were prepared by mixing together equal volumes of two peptide solutions each at 10 ug/ml. One cocktail used peptides BCH-87c and BCH-202c and the other cocktail was a mixture of BCH-87ck and BCH-202ck. Each cocktail was used to coat two series of plates as described earlier.

[3] = tested on: HIV antibodies; assay: ELISA with peptide-coated wells, samples negative for HIV antibodies or not described; format: binding, human
Protocol: as §1, §2, §3, §4, §5

[4] = tested on: HIV-1 antibodies; conditions: cited from earlier work

**Q.** What does the source list for `CC[C@H](C)[C@H](NC(=O)CNC(=O)[C@H](CC(C)C)NC(=O)[C@H](CC(C)C)NC(=O)[C@H](CCC(N)=O)NC(=O)[C@H](CCC(N)=O)NC(=O)[C@H](CC(=O)O)NC(=O)[C@H](CCCCN)NC(=O)[C@H](CC(C)C)NC(=O)[C@H](Cc1ccc(O)cc1)NC(=O)[C@H](CCCNC(=N)N)NC(=O)[C@H](CCC(=O)O)NC(=O)[C@@H](NC(=O)[C@H](C)NC(=O)[C@H](CC(C)C)NC(=O)[C@@H](NC(=O)[C@H](CCCCN)NC(=O)[C@@H](N)CCCCN)[C@@H](C)CC)C(C)C)C(=O)N[C@@H](Cc1c[nH]c2ccccc12)C(=O)NCC(=O)N[C@H]1CSSC[C@@H](C(=O)N[C@H](C(=O)N[C@H](C(=O)N[C@@H](C)C(=O)N[C@H](C(=O)N2CCC[C@H]2C(=O)N[C@@H](Cc2c[nH]c3ccccc23)C(=O)N[C@@H](CC(N)=O)C(=O)N[C@@H](C)C(=O)N[C@@H](CO)C(=O)O)C(C)C)[C@@H](C)O)[C@@H](C)O)NC(=O)[C@H]([C@@H](C)CC)NC(=O)[C@H](CC(C)C)NC(=O)[C@H](CCCCN)NC(=O)CNC(=O)[C@H](CO)NC1=O` [BCH-266] (H-KKILAVERYLKDQQLLGIWGCSGKLICTTAVPWNAS-OH; disulfide 21-27)?
**A.** O.D. 450 nm ([1]; Test 314, sample CAP-113 (HIV-1 positive plasma pool diluted 50-fold)): > 2.8; O.D. 450 nm ([1]; Test 314, sample CAP-114 (HIV-1 positive pool diluted 100-fold)): > 2.8; O.D. 450 nm ([1]; Test 314, sample CAP-115 (HIV-1 positive pool diluted 200-fold)): > 2.8; O.D. 450 nm ([1]; Test 314, sample CAP-116 (HIV-1 positive pool, serial dilution)): 2.376; O.D. 450 nm ([1]; Test 314, sample CAP-117 (HIV-1 positive pool, serial dilution)): 1.569; O.D. 450 nm ([1]; Test 314, sample CAP-118 (HIV-1 positive pool, serial dilution)): 0.934; O.D. 450 nm ([1]; Test 314, sample CAP-119 (HIV-1 positive pool, serial dilution)): 0.567; O.D. 450 nm ([1]; Test 314, sample CAP-120 (HIV-1 positive pool, serial dilution)): 0.376; O.D. 450 nm ([1]; Test 350, sample CAP-10 (progressively higher dilutions)): > 2.8; O.D. 450 nm ([1]; Test 350, sample CAP-11 (progressively higher dilutions)): > 2.8; O.D. 450 nm ([1]; Test 350, sample CAP-12 (progressively higher dilutions)): > 2.8; O.D. 450 nm ([1]; Test 350, sample CAP-13 (progressively higher dilutions)): 2.021; O.D. 450 nm ([1]; Test 350, sample CAP-14 (progressively higher dilutions)): 1.248; O.D. 450 nm ([1]; Test 350, sample CAP-15 (progressively higher dilutions)): 0.680; O.D. 450 nm ([1]; Test 350, sample CAP-16 (progressively higher dilutions)): 0.366; O.D. 450 nm ([1]; Test 350, sample CAP-17 (progressively higher dilutions)): 0.198; O.D. 450 nm ([1]; Test 350, sample CAP-18 (progressively higher dilutions)): 0.116; O.D. 450 nm ([1]; Test 350, sample CAP-19 (progressively higher dilutions)): 0.056; O.D. 450 nm ([2]; sample CAP-223 (HIV-2 positive pool diluted by 100)): 0.075; O.D. 450 nm ([2]; sample CAP-224 (HIV-2 positive pool, serial dilution)): 0.084; O.D. 450 nm ([2]; sample CAP-225 (HIV-2 positive pool, serial dilution)): 0.135; O.D. 450 nm ([2]; sample CAP-226 (HIV-2 positive pool, serial dilution)): 0.140; O.D. 450 nm ([2]; sample CAP-227 (HIV-2 positive pool, serial dilution)): 0.085; O.D. 450 nm ([2]; sample CAP-228 (HIV-2 positive pool, serial dilution)): 0.091; O.D. 450 nm ([2]; sample CAP-230 (HIV-2 positive pool, serial dilution)): 0.123; O.D. 450 nm ([3]; Test 314, sample BBI-1-162 (negative for HIV antibodies)): 0.028; O.D. 450 nm ([3]; Test 314, sample BBI-1-169 (not described)): 0.138; O.D. 450 nm ([3]; Test 314, sample BBI-1-172 (not described)): 0.030; O.D. 450 nm ([3]; Test 314, sample NEIA-2*2 (negative for HIV antibodies)): 0.069; O.D. 450 nm ([3]; Test 350, sample 2-87-L-139 (negative for HIV antibodies)): 0.147; O.D. 450 nm ([3]; Test 350, sample 2-87-V-103 (negative for HIV antibodies)): 0.020; O.D. 450 nm ([3]; Test 350, sample 89-D-307 (not described)): 0.030; O.D. 450 nm ([3]; Test 350, sample NEIA-2*2 (negative for HIV antibodies)): 0.023

**Q.** With “SGKLICTTAVPWNAS [short synthetic peptide spanning residues 606 to 620 of gp41 (HIV-1)]” as the compound, how does the sensitivity ([4]; U.S. Ser. No. 120,027, 6 of 57 confirmed positive not detected) read?
**A.** 89%

**Q.** And the specificity ([4]; U.S. Ser. No. 120,027)?
**A.** 63/63

**Q.** For SGKLIC, which “immunoreactivity with HIV-1 positive sera” value ([4]; Gnann et al. 1987, 22 HIV-1 positive sera tested) is on record?
**A.** not immunoreactive
